Source: patent publication US5182290A (Neurogen Corporation, priority 1991, dated 1993)
Entries after “also recorded” stand apart in the source; their conditions may differ.

How the values were obtained:
[1] = target: GABAa receptor; assay: Inhibition of 3H-RO15-1788 (3H-Flumazenil) binding to rat cortical tissue (GABAa receptor assay)
Procedure: Assays are carried out as described in Thomas and Tallman (J. Bio. Chem. 156: 9838-9842, J. Neurosci. 3:433-440, 1983). Rat cortical tissue is dissected and homogenized in 25 volumes (w/v) of 0.05M Tris HCl buffer (pH 7.4 at 4° C.). The tissue homogenate is centrifuged in the cold (4° C.) at 20,000×g for 20 minutes. The supernatant is decanted and the pellet is rehomogenized in the same volume of buffer and again centrifuged at 20,000× g. The supernatant is decanted and the pellet is frozen at -20° C. overnight. The pellet is then thawed and rehomogenized in 25 volume (original wt/vol) of buffer and the procedure is carried out twice. The pellet is finally resuspended in 50 volumes (w/vol of 0.05M Tris HCl buffer (pH 7.4 at […]).
Incubations contain […] of radioligand 0.5 nM (^3 H-RO15-1788[^3 H-Flumazenil] specific activity 80 Ci/mmol), drug or blocker and buffer to a total volume of […]. Incubations are carried for 30 min at 4° C. then are rapidly filtered through GFB filters to separate free and bound ligand. Filters are washed twice with fresh 0.05M Tris HCl buffer (pH 7.4 at 4° C.) and counted in a liquid scintillation counter. 1.0 mM diazepam is added to some tubes to determine nonspecific binding. Data are collected in triplicate determinations, averaged and % inhibition of total specific binding is calculated. Total Specific Binding=Total-Nonspecific. In some cases, the amounts of unlabeled drugs is varied and total displacement curves of binding are carried out. Data are converted to a form for the calculation of IC50 and Hill Coefficient (nH).

[2] = tested on: benzodiazepine binding site; settings: result in words; Tallman et al., 1978; cited from earlier work
[3] = 3H-RO15-1788 0.5 nM, rat cortical tissue, 30 min at 4° C.

| IC50 [1, 3] | Compound | Blockade of enhancement of benzodiazepine binding by GABA agonists [2] | also measured |
| --- | --- | --- | --- |
| 600 nM | COc1cccc(-c2nc3c(=O)[nH]c4ccccc4c3o2)c1 [Compound 1, 2-(3-Methoxyphenyl)-oxazolo[4,5-c]quinolin-4(5H)-one] |  |  |
| 125 nM | COc1ccc(-c2nc3c(=O)[nH]c4ccccc4c3o2)cc1 [Compound 4, 2-(4-Methoxyphenyl)-oxazolo[4,5-c]quinolin-4(5H)-one] |  |  |
|  | Cn1c(=O)c2nc(-c3ccccc3)oc2c2ccccc21 [5-methyl-2-phenyl-oxazolo[4,5-c]quinolin-4(5H)-one] |  | IC50 ([1]; prior art compound, assay described above, unit inferred): ~50000 nM; activity in the assay ([1]; prior art compound, result in words): no activity; also recorded: inactive |
|  | CN1CCc2cc3c(cc2[C@@H]1[C@H]1OC(=O)c2c1ccc1c2OCO1)OCO3 [(-) bicuculline] | much less active |  |
| 95 nM | O=c1[nH]c2ccccc2c2oc(-c3ccccc3)nc12 [Compound 2, 2-Phenyl-oxazolo[4,5-c]quinolin-4(5H)-one] |  |  |
|  | CN1CCc2cc3c(cc2[C@H]1[C@@H]1OC(=O)c2c1ccc1c2OCO1)OCO3 [(+) bicuculline] | blocked |  |
